Assays:
Mus musculus [1] = experiment: Antinociceptive activity in mouse assessed as licking latency at 1.0 ug, icv after 60 mins by hot plate method; format: functional
Mus musculus [2] = experiment: Antinociceptive activity in mouse assessed as licking latency at 0.03 ug, icv after 15 mins by hot plate method; format: functional
Mus musculus [3] = experiment: Antinociceptive activity in mouse assessed as licking latency at 0.3 ug, icv after 15 mins by hot plate method; format: functional
Mus musculus [4] = experiment: Antinociceptive activity in mouse assessed as licking latency at 0.1 ug, icv after 30 mins by hot plate method; format: functional
Mus musculus [5] = experiment: Antinociceptive activity in mouse assessed as licking latency at 10 ug, icv after 30 mins by hot plate method; format: functional
[6] = target: T1, Muscarinic acetylcholine receptor M2 (Homo sapiens) (UniProt P08172); experiment: Antagonist potency at muscarinic receptor M2 in guinea pig atrium; format: functional, tissue-based; details: Cavia porcellus; Cardiac atrium; target entry is the homologue from another species
T1 sequence (whole entry): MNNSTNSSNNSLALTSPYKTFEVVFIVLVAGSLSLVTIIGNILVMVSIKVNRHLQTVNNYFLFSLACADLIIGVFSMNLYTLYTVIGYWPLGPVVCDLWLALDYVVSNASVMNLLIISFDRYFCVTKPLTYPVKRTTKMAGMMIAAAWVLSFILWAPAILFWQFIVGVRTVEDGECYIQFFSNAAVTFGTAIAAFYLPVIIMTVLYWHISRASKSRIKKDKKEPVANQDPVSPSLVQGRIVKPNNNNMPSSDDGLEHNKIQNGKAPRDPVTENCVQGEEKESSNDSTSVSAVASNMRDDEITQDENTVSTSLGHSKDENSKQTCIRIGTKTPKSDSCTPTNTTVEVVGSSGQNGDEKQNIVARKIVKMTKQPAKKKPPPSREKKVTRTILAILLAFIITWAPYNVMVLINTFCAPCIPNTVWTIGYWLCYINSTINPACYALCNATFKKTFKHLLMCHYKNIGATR

[7] = target: Muscarinic acetylcholine receptor M3 (Cavia porcellus) (UniProt Q8VH26); experiment: Antagonist potency at muscarinic receptor M3 in guinea pig ileum; format: functional, tissue-based
Chain of Muscarinic acetylcholine receptor M3 (Cavia porcellus) (Q8VH26 1-587): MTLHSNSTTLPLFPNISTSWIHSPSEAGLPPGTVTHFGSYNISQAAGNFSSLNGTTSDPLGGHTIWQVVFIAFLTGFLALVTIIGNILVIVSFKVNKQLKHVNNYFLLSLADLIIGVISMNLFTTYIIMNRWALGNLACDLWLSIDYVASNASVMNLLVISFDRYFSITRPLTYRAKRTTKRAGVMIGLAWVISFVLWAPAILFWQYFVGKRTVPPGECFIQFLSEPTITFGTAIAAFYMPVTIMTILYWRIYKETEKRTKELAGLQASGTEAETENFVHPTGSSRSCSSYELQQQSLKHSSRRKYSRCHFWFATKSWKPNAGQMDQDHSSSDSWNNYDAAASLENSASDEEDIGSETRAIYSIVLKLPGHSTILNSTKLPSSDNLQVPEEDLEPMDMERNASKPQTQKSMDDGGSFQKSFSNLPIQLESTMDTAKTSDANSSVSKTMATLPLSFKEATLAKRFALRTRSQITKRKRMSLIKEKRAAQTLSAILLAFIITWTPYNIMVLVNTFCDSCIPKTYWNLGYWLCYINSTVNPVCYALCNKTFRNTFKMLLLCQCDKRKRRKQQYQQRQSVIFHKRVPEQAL

[8] = target: T2, Muscarinic acetylcholine receptor M4 (Homo sapiens) (UniProt P08173); experiment: Antagonist potency at muscarinic receptor M4 in rabbit vas deferens; format: functional, tissue-based; details: Oryctolagus cuniculus, target entry is the homologue from another species
T2 sequence (whole entry): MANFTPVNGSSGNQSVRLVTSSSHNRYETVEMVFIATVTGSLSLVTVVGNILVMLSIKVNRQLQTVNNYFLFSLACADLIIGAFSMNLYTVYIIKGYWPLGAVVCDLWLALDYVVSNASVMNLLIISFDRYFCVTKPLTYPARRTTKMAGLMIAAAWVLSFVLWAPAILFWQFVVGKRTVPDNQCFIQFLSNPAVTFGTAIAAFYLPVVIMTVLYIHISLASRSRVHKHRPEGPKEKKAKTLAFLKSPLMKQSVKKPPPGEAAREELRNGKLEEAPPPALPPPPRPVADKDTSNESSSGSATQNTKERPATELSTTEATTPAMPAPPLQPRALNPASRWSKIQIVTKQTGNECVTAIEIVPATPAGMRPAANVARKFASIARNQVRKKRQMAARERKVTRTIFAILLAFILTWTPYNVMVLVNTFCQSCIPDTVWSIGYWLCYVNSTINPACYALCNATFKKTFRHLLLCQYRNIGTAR

Acetylcholinesterase = Acetylcholinesterase (Homo sapiens, UniProt P22303); experiment: Inhibition of human erythrocyte recombinant AchE after 20 mins
Chain of Acetylcholinesterase (P22303 whole entry): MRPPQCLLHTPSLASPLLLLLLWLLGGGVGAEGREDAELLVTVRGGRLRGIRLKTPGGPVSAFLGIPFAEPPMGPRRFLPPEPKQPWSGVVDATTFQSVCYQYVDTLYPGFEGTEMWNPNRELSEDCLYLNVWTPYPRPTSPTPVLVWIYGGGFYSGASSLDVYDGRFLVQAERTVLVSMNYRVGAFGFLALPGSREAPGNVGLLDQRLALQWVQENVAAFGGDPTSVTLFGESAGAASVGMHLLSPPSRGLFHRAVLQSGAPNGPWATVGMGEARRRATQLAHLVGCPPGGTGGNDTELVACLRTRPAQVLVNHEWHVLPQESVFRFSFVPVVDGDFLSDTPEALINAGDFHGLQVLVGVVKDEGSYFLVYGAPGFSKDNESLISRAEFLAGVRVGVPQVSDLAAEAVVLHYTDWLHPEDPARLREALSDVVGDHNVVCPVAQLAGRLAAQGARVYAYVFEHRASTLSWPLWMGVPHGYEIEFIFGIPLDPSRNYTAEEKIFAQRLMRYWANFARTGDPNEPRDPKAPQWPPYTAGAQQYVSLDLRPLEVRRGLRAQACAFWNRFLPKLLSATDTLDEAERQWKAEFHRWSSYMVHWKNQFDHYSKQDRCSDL

[9] = target: T3, Muscarinic acetylcholine receptor M1 (Homo sapiens, UniProt P11229); experiment: Displacement of [3H] N-methyl-scopolamine chloride from human muscarinic receptor M1 expressed in CHO cells; format: cell-based
T3 sequence (P11229 whole entry): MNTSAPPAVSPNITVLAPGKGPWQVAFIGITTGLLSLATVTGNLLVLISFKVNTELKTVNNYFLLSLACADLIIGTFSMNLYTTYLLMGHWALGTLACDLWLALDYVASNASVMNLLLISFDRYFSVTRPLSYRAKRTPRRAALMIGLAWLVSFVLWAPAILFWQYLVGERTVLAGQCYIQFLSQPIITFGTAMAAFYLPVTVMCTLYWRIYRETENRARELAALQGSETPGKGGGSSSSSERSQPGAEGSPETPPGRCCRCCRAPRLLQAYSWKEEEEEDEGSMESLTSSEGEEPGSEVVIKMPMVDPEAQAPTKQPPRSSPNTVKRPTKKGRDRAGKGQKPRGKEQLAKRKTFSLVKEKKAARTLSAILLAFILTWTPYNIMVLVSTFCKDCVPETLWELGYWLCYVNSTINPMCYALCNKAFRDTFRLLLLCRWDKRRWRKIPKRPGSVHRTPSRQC

[10] = target: Muscarinic acetylcholine receptor M3 (Homo sapiens, UniProt P20309); experiment: Displacement of [3H] N-methyl-scopolamine chloride from human muscarinic receptor M3 expressed in CHO cells; format: cell-based
Chain of Muscarinic acetylcholine receptor M3 (P20309 whole entry): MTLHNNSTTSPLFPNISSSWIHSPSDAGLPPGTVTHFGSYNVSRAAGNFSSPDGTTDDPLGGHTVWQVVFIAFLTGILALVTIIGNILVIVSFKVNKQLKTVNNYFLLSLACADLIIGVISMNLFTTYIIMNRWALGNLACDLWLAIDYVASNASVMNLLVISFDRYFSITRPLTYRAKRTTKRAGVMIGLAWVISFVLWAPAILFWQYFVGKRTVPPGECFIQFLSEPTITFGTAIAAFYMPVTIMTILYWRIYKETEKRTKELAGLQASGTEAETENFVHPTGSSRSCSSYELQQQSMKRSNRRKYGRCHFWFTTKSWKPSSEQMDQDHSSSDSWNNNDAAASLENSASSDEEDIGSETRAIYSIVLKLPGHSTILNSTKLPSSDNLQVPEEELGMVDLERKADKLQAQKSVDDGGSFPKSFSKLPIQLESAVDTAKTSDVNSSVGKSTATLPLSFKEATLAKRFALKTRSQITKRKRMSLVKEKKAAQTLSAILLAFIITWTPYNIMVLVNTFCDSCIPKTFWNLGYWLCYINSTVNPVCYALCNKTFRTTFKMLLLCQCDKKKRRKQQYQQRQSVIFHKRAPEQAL

[11] = target: T4, Muscarinic acetylcholine receptor M4 (Homo sapiens, UniProt P08173); experiment: Displacement of [3H] N-methyl-scopolamine chloride from human muscarinic receptor M4 expressed in CHO cells; format: cell-based
T4 sequence (P08173 whole entry): T2 sequence (whole entry)

[12] = target: T5, Muscarinic acetylcholine receptor M5 (Homo sapiens, UniProt P08912); experiment: Displacement of [3H] N-methyl-scopolamine chloride from human muscarinic receptor M5 expressed in CHO cells; format: cell-based
T5 sequence (P08912 whole entry): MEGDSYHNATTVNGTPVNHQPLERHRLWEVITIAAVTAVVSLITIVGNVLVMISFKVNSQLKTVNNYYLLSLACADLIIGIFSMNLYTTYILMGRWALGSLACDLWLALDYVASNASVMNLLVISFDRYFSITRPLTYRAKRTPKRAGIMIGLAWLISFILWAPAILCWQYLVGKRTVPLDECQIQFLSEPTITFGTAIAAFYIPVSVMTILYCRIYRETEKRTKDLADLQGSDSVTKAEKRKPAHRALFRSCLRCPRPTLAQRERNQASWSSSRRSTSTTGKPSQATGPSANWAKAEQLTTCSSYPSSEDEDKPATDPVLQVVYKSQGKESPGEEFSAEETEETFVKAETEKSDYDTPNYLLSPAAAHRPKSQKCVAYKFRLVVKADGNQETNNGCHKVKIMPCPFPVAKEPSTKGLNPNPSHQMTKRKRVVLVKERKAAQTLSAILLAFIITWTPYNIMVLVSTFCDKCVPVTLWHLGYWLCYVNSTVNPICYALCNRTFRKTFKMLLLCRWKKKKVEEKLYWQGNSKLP

Mus musculus [13] = experiment: Antinociceptive activity in mouse assessed as licking latency at 0.01 ug, icv after 15 mins by hot plate method; format: functional
Mus musculus [14] = experiment: Antinociceptive activity in mouse assessed as licking latency at 1.0 ug, icv after 30 mins by hot plate method; format: functional
Mus musculus [15] = experiment: Antinociceptive activity in mouse assessed as licking latency at 0.03 ug, icv after 30 mins by hot plate method; format: functional
Mus musculus [16] = experiment: Antinociceptive activity in mouse assessed as licking latency at 0.01 ug, icv after 60 mins by hot plate method; format: functional
Mus musculus [17] = experiment: Antinociceptive activity in mouse assessed as licking latency at 0.03 ug, icv after 45 mins by hot plate method; format: functional
Mus musculus [18] = experiment: Antinociceptive activity in mouse assessed as licking latency at 0.1 ug, icv after 45 mins by hot plate method; format: functional
Mus musculus [19] = experiment: Antinociceptive activity in mouse assessed as licking latency at 10 ug, icv after 45 mins by hot plate method; format: functional

Question: Which results are given for `COc1ccccc1CNCCCCCCN1CCC(CCC2CCN(CCCCCCNCc3ccccc3OC)CC2)CC1`?
Answer: Time (Mus musculus [1]): 19.5 s; Time (Mus musculus [2]): 18.6 s; Time (Mus musculus [3]): 23.8 s; Time (Mus musculus [4]): 24.5 s; Time (Mus musculus [5]): 15.6 s; pKb [6]: 7.98; pKb [7]: 6.58; pKb [8]: 5.56; IC50 (Acetylcholinesterase): 1290 nM; Ki [9]: 20 nM; Ki [10]: 214 nM; Ki [11]: 40.7 nM; Ki [12]: 170 nM; Time (Mus musculus [13]): 15.9 s; Time (Mus musculus [14]): 21.3 s; Time (Mus musculus [15]): 19.4 s; Time (Mus musculus [16]): 14.2 s; Time (Mus musculus [17]): 18.3 s; Time (Mus musculus [18]): 22.1 s; Time (Mus musculus [19]): 17.7 s

Source: ChEMBL document CHEMBL1147166, “Structure-activity relationships of methoctramine-related polyamines as muscarinic antagonist: effect of replacing the inner polymethylene chain with cyclic moieties” (Bioorg Med Chem, 2007)
